Measured values as given in US10286022B2, “Medicinal composition of extract of seed of emblica officinalis and method of preparing the same” (priority 2013, dated 2019).

Tested on: Triton WR 1339 induced dyslipidemia in Albino rats (Sprague Dawley strain)
Assay: Hypolipidemic activity in different doses, Triton WR 1339 induced dyslipidemia model (Example 19)
Format: in vivo, rat
Procedure: Sixty male Albino rats (Sprague Dawley strain) weighing approximate 250-300 gm were selected for the study. The animals were kept in the animal house maintained at temp 24±2° C., 65% relative humidity and 12 hr light/dark cycle. The rats were acclimatized for two weeks and during this period they had access to standard pellet diet and water ad libitum. After two weeks of acclimatization, all the rats were fasted overnight before injecting Triton WR 1339 (Tyloxapol) and administration of test extracts/standard. The animals were divided into ten groups. Following treatment was given to overnight fasted rats: • Group I: Normal control (vehicle only). • Group II: Triton WR 1339 (300 mg/kg, intraperitoneal). • Group III: Triton WR 1339 (300 mg/kg, intraperitoneal) followed by amla seed extract prepare as per example 1 (10 mg/kg, per oral). • Group IV: Triton WR 1339 (300 mg/kg, intraperitoneal) followed by amla seed extract prepare as per example 1 (7.5 mg/kg, per oral). • Group V: Triton WR 1339 (300 mg/kg, intraperitoneal) followed by amla seed extract prepare as per example 1 (5 mg/kg, per oral). • Group VI: Triton WR 1339 (300 mg/kg, intraperitoneal) followed by amla seed extract prepare as per example 1 (2.5 mg/kg, per oral). • Group VII: Triton WR 1339 (300 mg/kg, intraperitoneal) followed by amla seed extract prepare as per example 1 (2 mg/kg, per oral). • Group VIII: Triton WR 1339 (300 mg/kg, intraperitoneal) followed by amla seed extract prepare as per example 1 (1 mg/kg, per oral). • Group IX: Triton WR 1339 (300 mg/kg, intraperitoneal) followed by amla seed extract prepare as per example 1 (0.5 mg/kg, per oral). • Group X: Triton WR 1339 (300 mg/kg, intraperitoneal) followed by atorvastatin (10 mg/kg. per oral).
The animals were deprived of food for next 24 hours but had free access to water ad libitum. After 24 hour of drug treatment 2 ml blood samples were collected from the retro orbital plexus. The blood was allowed to clot and then centrifuged at 3000 rpm for 10 min and the serum was carefully drawn and collected into separate tubes. The serum was analyzed for total cholesterol, triglycerides, high density lipoproteins (HDL), low density lipoproteins (LDL) and very low density lipoproteins (VLDL) levels using auto-analyzer.

[1] = 24 h after Triton i.p. + 10 mg/kg p.o.

CC(C)c1c(C(=O)Nc2ccccc2)c(-c2ccccc2)c(-c2ccc(F)cc2)n1CC[C@@H](O)C[C@@H](O)CC(=O)O [Atorvastatin]
HDL After [1]: 39.83 mg/dL
LDL After [1]: 60.23 mg/dL
TC After [1]: 120.83 mg/dL
TG After [1]: 103.86 mg/dL
VLDL After [1]: 20.77 mg/dL
effect on cholesterol and triglyceride level (amla seed extract 0.5 to 10 mg/kg p.o., atorvastatin 10 mg/kg p.o.): effective in lowering the cholesterol as well as triglyceride level
HDL Before (baseline, 10 mg/kg p.o. group): 31.66 mg/dL
LDL Before (baseline, 10 mg/kg p.o. group): 47.75 mg/dL
TC Before (baseline, 10 mg/kg p.o. group): 87.43 mg/dL
TG Before (baseline, 10 mg/kg p.o. group): 39.9 mg/dL
VLDL Before (baseline, 10 mg/kg p.o. group): 7.98 mg/dL
